Laboratory results: patent US20080305038A1, “Transport of Nano-and Macromolecular Structures Into Cytoplasm and Nucleus of Cells” (LUDWIG-MAXIMILIANS-UNIVERSITÄT, priority 2005, published 2008)
“Also recorded” adds a separate entry of the source.

Assays:
CHO cells = test: Cell surface biotinylation for cargo (FITC-Avidin) uptake, FACS; type: cell-based; details: CHO cells pretreated 30 minutes at 4° C. at 185 μM, then 75 pmol FITC-Avidin, one hour at 37° C.
Description: (§1) Biotin-HPDP (Pierce, #21341) was solubilized in DMF and diluted in PBS (pH=7.4) to a final concentration of 100 μg/ml. 500 μl of this solution (=92.6 nmol) were incubated on CHO and HeLa cells (1×10^6 cells per Well) for 30 minutes at 4° C. After washing twice with PBS, 5 μg (=75 pmol) Avidin-FITC (Sigma, #A9275) were added and cells were incubated for 1 h at 37° C. After incubation, cells were washed twice with PBS and harvested with Trypsin-EDTA (Invitrogen, #25300-054). […] 1000 cells per sample were counted.
(§2) Instead of Biotin-HPDP, also Biotin (Sigma, #B4639), Biotin-Maleimid (Sigma, #B1267) or PBS (for determination of unspecific binding of Avidin-FITC) was incubated on the cells at equimolar concentrations.

HeLa cells = test: as above; type: cell-based; details: HeLa cells pretreated 30 minutes at 4° C. at 185 μM, then 75 pmol FITC-Avidin, one hour at 37° C.
Description: as §1, §2

intact cells = test: Dependency of cellular and nuclear uptake on TP-substituent (chemical modification), intact cells; type: cell-based; details: chemically modified TP-substituent of FITC-BSA-TP
Description: 1.3 Modification of FITC-BSA-TP Conjugates FITC-BSA was reacted with a 10-fold excess of cystein in PBS (pH=8, He-saturated) for 3 h. Photometric determination of cleaved thiopyridone indicated complete reaction of FITC-BSA-TP to FITC-BSA-Cys. The conjugate was purified chromatographically (Sephadex G-25 superfine HR 10/10 column; Pharmacia, Uppsala, Sweden). FITC-BSA-TP was reacted in presence of 13 mM DTT for 2 h and purified by chromatography in order to obtain a FITC-BSA conjugate with free thiol-function. Determination of degree of conjugation with Ellmanns' reagent indicated complete separation of the thiopyridone moiety, which, in consequence, led to FITC-BSA-SH. The synthesized FITC-BSA-SH conjugate was further reacted with a 50-fold excess of N-ethylmaleimide for 2 h and purified by chromatography subsequently. Controlling the product for remaining thiol moieties by using Elmanns' reagent indicated a complete reaction to FITC-BSA-NEM. 1.4 Coupling of FITC and SPDP to plasmid-DNA Coupling of FITC and SPDP with plasmid-DNA was carried out by photochemical coupling using psoralenamin. Therefore, a kit from company Sima was used (PS-amine). Coupling was carried out following the manufacturers' instructions. 4 μl of reconstituted psoralenamine solution (4.83 psoralenamine) were pipetted to 100 μl solubilized DNA (μCLuc in pur. water, 200 μg/ml DNA). The resulting solution was vortexed vigorously. The solution was irradiated with UV (λ=366 nm, 6 watt, 850 μwatt/cm^2) for 45 minutes on ice. Portions of each 50 μl were purified using a G-25 Microspin column (Amersham) and, subsequently, 2 μl 1×PBS were added. To one 50 μl fraction of the purified Psoralenamin-coupled DNA 2 μl FITC-NHS solution ([…] in DMF) were added. To the other 50 μl fraction a mixture consisting of 2 μl FITC-NHS (10 mg/ml in DMF) 2 μl SPDP (10 mg/ml in EtOH) were added. The solutions were agitated for 1.5 h at room temperature. Subsequent thereto plasmid-DNA conjugates were purified repeatedly using a G-25 Microspin column (Amersham), and used for cell culture experiments. […]

HepG2 cells [1] = test: Quantification of cellular and nuclear uptake by flow cytometry (FACS); type: cell-based; details: 1 h incubation; for nuclear uptake, nucleus associated FITC fluorescence (FACS): cell lysis with Nonidet P 40, released nucleoli; for cellular uptake (FACS): whole cells detached with trypsine
Description: Therefore, HepG2 cells were incubated for 1 h with FITC labelled constructs or with FITC labelled and TP-modified conjugates as used in experiments 1 to 4. After incubation cells were detached from the bottom of the cell culture plates (whole cells) by using either a trypsine containing solution or a trypsine containing solution supplemented with detergent Nonidet P 40. Detergent Nonidet P 40 leads to lysis of cytoplasm membranes and release of nucleoli. Propidiumiodid was added to trypsine buffer in order to identify the nucleoli.

HepG2 cells [2] = test: Cellular and nuclear uptake, confocal laser scanning microscopy; type: cell-based
Description: (§3) Corresponding cell lines were seeded in 8-chamber sample carriers (Falcon, #4108, BD Bioscience, Belgium) resulting in about 70-80% confluence next day. Cells were incubated along with inventive conjugates for 1 h at 37° C. and 5% CO2 in an incubator (c=5 μM). Subsequently thereto cells were washed twice with PBS and fixed with a solution containing 4% paraformaldehyde. The nucleoli were colored by using the fluorescence dye DAPI (0.3 μM) or propidiumiodid (3 μM) and cells were embedded (Vectashield, Vector Laboratories, Burlingame, Calif., USA). Photographs were taken using a Sony 3CCD camera having an Axiovert 135-microscope (Carl-Zeiss, Göttingen, Germany; objective: Plan-Neofluar 100×/1.3 oil). Optical transsections for laser scanning microscopy were performed using a confocal microscope having three channels (TCS 4D; Leica Inc. Deerfield, Ill.) equipped with a Plan Apo 63×/1.32 oil objective). Both fluorescence dyes FITC and propidiumiodide were irradiated at wavelengths 488 nm and 567 nm using an argon/krypton laser. 256×256 8 bit pictures were generated having an axial distance of 250 nm and a pixel size of […]. Each picture series consisted of about 20-25 pictures. Both fluorochromes were mapped sequentially in the same nucleolus layer.
Confocal laser scanning microscopy was additionally carried out (see FIG. 3), since in epifluorescence, microscopy the resulting signal assumable may be due to association of the FITC-BSA-TP conjugates with the nuclear membrane.

HepG2 cells [3] = test: Uptake of conjugates into cells, epifluorescence microscopy; type: cell-based; details: 1 h incubation, 5 μM, fixed with paraformaldehyde
Description: as §3
Therefore, HepG2 cells were incubated for 1 h with FITC-labelled BSA conjugates (5 μm) and fixed with paraformaldehyde. Results were analysed by epifluorescence microscopy (see FIG. 2). The cellular and nuclear epifluorescence photographs show an FITC signal of BSA in the left column and an FITC-BSA-TP signal in the right column. The corresponding nucleoli were colored using the fluorescent dye propidiumiodid.
Dextran constructs and modifications were prepared analogously to BSA constructs as shown above in section 2.1. As a starting material an amino-modified dextran was used having a molecular weight of 70,000 (MW). […] Analysis was carried out using epifluorescence microscopy (see FIG. 4). The corresponding nucleoli were colored using the fluorescent dye propidiumiodid.
Similar as shown in 2.1 and 2.2 IgG1 constructs were analyzed as to whether they may be transported into the cells upon TP modification. IgG1 constructs and modifications were prepared analogously to BSA and dextran constructs as shown above in sections 2.1 and 2.2. As a starting material bovine IgG was used having a molecular weight of approximately 130,000 (MW). […] Analysis was carried out using epifluorescence microscopy (see FIG. 5). The corresponding nucleoli were colored using the fluorescent dye propidiumiodid.
PEG based negatively charged liposomes were used showing distal unmodified (carboxylic moiety) or TP-modified PEG chains. The liposomes were modified with fluorescence labelled lipids. Thereafter, HepG2 cells were coincubated with fluorescence labelled liposomes and fixed at different times. In order to detect uptake by cells and nucleus, epifluorescence microscopy was carried out (see FIG. 7). The nucleoli were colored with DAPI. From top to bottom a control experiment and the results from 1, 1.5, 2.5 and 4 h incubation are shown.
Therefore, a reporter plasmid encoding the luciferase gene and having a size of 6.4 kb was TP modified and incubated with HepG2 cells for 1 h.

HepG2 cells [4] = test: Uptake in non-fixed and lysed cells, epifluorescence microscopy; type: cell-based
Description: In order to exclude artifacts resulting from fixing of cells FITC-modified BSA and FITC-BSA-TP conjugates (5 μM) were incubated for 1 h with HepG2 cells. Subsequently, cells were immediately transferred in PBS or lysed with lysis buffer within 30 minutes and analyzed via epifluorescence microscopy. […] Consequently, artifacts can be excluded due to fixing of cells.
Additionally, cytoplasma membrane of HepG2 of cells was lysed with lysis buffer (20 mM HEPES, 10 mM KCl, 0.5 mM EDTA, 0.1% Triton X-100, pH7.5) subsequent to incubation. […] Consequently, FITC-BSA-TP conjugates are localized in the nucleus.

HepG2 cells [5] = test: Uptake of β-galactosidase, activity visualized by X-Gal; type: cell-based; details: 5 μM; for cellular uptake of β-galactosidase / nuclear uptake of β-galactosidase: 1 h or 24 h
Description: (§4) Analogous to sections 2.1 to 2.3 above the enzyme β-galactosidase was modified with TP. […] Subsequent to modification HepG2 cells were incubated with (TP) modified β-galactosidase (5 μM) for 1 h or 24 h and then fixed in paraformaldehyde. β-galactosidase activity was visualized by using X-Gal (see FIG. 6).

[6] = Influence of TP-modification on activity of β-galactosidase; type: biochemical
Description: as §4

## O=C(CCCC[C@@H]1SC[C@@H]2NC(=O)N[C@@H]21)NCCCCCCNC(=O)CCSSc1ccccn1 [Biotin-HPDP, N-[6-(Biotinamido)hexyl]-3′-(2′-pyridyldithio)propionamide]
CHO cells
  delivery of cargo (FITC-Avidin) to cells, FITC-positive cells by FACS: efficiently deliver cargo molecules to cells
HeLa cells
  delivery of cargo (FITC-Avidin) to cells, FITC-positive cells by FACS: efficiently deliver cargo molecules to cells

## Biotin-Maleimid
CHO cells
  delivery of cargo (FITC-Avidin) to cells, FITC-positive cells by FACS: highly efficient cargo accumulation at the cellular surface
HeLa cells
  delivery of cargo (FITC-Avidin) to cells, FITC-positive cells by FACS: highly efficient cargo accumulation at the cellular surface

## FITC-BSA-NEM: FITC-BSA-SH reacted with excess N-ethylmaleimide, thiol blocked
Intact cells
  cellular or nuclear uptake: Neither the free sulfhydryl moiety nor the sulfhydryl moiety blocked by N-ethylmaleimide mediated cellular or nuclear uptake

## FITC-BSA-SH: FITC-BSA-TP reacted with DTT, giving FITC-BSA conjugate with free thiol-function
Intact cells
  cellular or nuclear uptake: Neither the free sulfhydryl moiety nor the sulfhydryl moiety blocked by N-ethylmaleimide mediated cellular or nuclear uptake

## FITC-BSA-TP: FITC-labelled BSA reacted with SPDP; thiopyridyl (PDP) conjugation degree ~9-10 per BSA
HepG2 cells [1]
  nuclear uptake, nucleus associated FITC fluorescence (FACS): 63%
  cellular uptake (FACS): 78%
HepG2 cells [2]
  cellular uptake (localization in the cytoplasm): cellular uptake
  nuclear uptake (localization in the nucleus): Uptake of BSA into the nucleus is clearly observable; also recorded: nuclear uptake of FITC-BSA-TP is observable
HepG2 cells [3]
  cellular uptake (uptake into cytoplasm): uptake of FITC-BSA-TP constructs into cytoplasm and nucleus
  nuclear uptake (uptake into the nucleus): clearly observable; also recorded: uptake of FITC-BSA-TP constructs into cytoplasm and nucleus
HepG2 cells [4]; 5 μM, 1 h, transferred in PBS without fixing, epifluorescence
  distribution in fixed versus non-fixed cells: identical in both fixed and non-fixed HepG2 cells
HepG2 cells [4]; lysis buffer with 0.1% Triton X-100 after incubation
  fluorescence signal after lysis of cytoplasma membrane: a fluorescence signal was clearly observed in the nucleus
Intact cells
  cellular or nuclear uptake: cellular and nuclear uptake are only observable if an intact TP-substituent is present

## FITC-BSA: BSA labelled with carboxyfluorescein-N-hydroxysuccinimidester, without TP modification
HepG2 cells [1]
  nuclear uptake, nucleus associated FITC fluorescence (FACS): 51%
  cellular uptake (FACS): 55%
HepG2 cells [2]
  cellular uptake (localization in the cytoplasm): localization in the cytoplasm
  nuclear uptake (localization in the nucleus): no localization of non-modified FITC-BSA in the nucleus could be observed
HepG2 cells [3]
  cellular uptake (uptake into cytoplasm): Uptake of non-modified FITC-BSA into cytoplasm of HepG2 cells could also be observed
  nuclear uptake (uptake into the nucleus): no uptake of FITC-BSA into the nucleus could be observed

## FITC-Dextran
HepG2 cells [1]
  nuclear uptake, nucleus associated FITC fluorescence (FACS): 7%
  cellular uptake (FACS): 25%
HepG2 cells [3]
  cellular uptake (uptake into cytoplasm): Uptake of non-modified FITC-Dextran into cytoplasm of HepG2 cells could also be observed
  nuclear uptake (uptake into the nucleus): no uptake of FITC-Dextran into the nucleus could be observed

## FITC-β-galactosidase-TP: enzyme β-galactosidase modified with thiopyridyl via SPDP, conjugation degree about 1
HepG2 cells [5]
  cellular uptake of β-galactosidase: uptake of β-galactosidase into cytoplasm and nucleus into many cells
  nuclear uptake of β-galactosidase: uptake of β-galactosidase into cytoplasm and nucleus into many cells
HepG2 cells [5]; listed as (TP) modified β-galactosidase
  nuclear uptake of β-galactosidase: clearly observable
HepG2 cells [5]; 24 h incubation
  positive cells and nucleoli: almost all cells and their nucleoli showed a positive signal
[6]
  influence of TP-modification on activity of β-galactosidase: does not exhibit any influence on activity of β-galactosidase

## non-modified β-galactosidase: enzyme β-galactosidase without TP modification, control
HepG2 cells [5]
  cellular uptake of β-galactosidase: negligible
  nuclear uptake of β-galactosidase: no nuclear uptake
